# Laboratory results: PubChem BioAssay (NCI)
#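 These data come from cells grown in 96-well plates and exposed to compound for 48 hours at five concentrations. GI50 is the concentration that inhibits growth by half. The concentration for full growth arrest is given as TGI.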
# Tests used:
# Assay in all cases: NCI tumour cell line growth inhibition, 48 h
# 786-0 renal = system: 786-0 renal
# SF-539 CNS = system: SF-539 CNS
# U251 CNS = system: U251 CNS
# HL-60(TB) leukemia = system: HL-60(TB) leukemia
# CAKI-1 renal = system: CAKI-1 renal
# RXF 393 renal = system: RXF 393 renal
# SF-295 CNS = system: SF-295 CNS
# MCF7 breast = system: MCF7 breast
# UO-31 renal = system: UO-31 renal
# T-47D breast = system: T-47D breast
# SNB-75 CNS = system: SNB-75 CNS
# A498 renal = system: A498 renal
# RPMI-8226 leukemia = system: RPMI-8226 leukemia
# HT29 colon = system: HT29 colon
# COLO 205 colon = system: COLO 205 colon
# BT-549 breast = system: BT-549 breast
# NCI-H522 lung = system: NCI-H522 lung
# SK-MEL-28 melanoma = system: SK-MEL-28 melanoma
# MALME-3M melanoma = system: MALME-3M melanoma
# HOP-62 NSCLC = system: HOP-62 NSCLC
# K-562 leukemia = system: K-562 leukemia
# MOLT-4 leukemia = system: MOLT-4 leukemia
# HCT-116 colon = system: HCT-116 colon
# PC-3 prostate = system: PC-3 prostate
# SNB-19 CNS = system: SNB-19 CNS
# OVCAR-4 ovarian = system: OVCAR-4 ovarian
# IGROV1 ovarian = system: IGROV1 ovarian
# SN12C renal = system: SN12C renal
# LOX IMVI melanoma = system: LOX IMVI melanoma
# HCC-2998 colon = system: HCC-2998 colon
# M14 melanoma = system: M14 melanoma
# SK-MEL-5 melanoma = system: SK-MEL-5 melanoma
# KM12 colon = system: KM12 colon
# NCI/ADR-RES ovarian = system: NCI/ADR-RES ovarian
# HCT-15 colon = system: HCT-15 colon
# UACC-62 melanoma = system: UACC-62 melanoma
# OVCAR-3 ovarian = system: OVCAR-3 ovarian
# DU-145 prostate = system: DU-145 prostate
# OVCAR-5 ovarian = system: OVCAR-5 ovarian
# SR leukemia = system: SR leukemia
# ACHN renal = system: ACHN renal
# MDA-MB-435 = system: MDA-MB-435
# TK-10 renal = system: TK-10 renal
# CCRF-CEM leukemia = system: CCRF-CEM leukemia
# NCI-H23 lung = system: NCI-H23 lung
# MDA-MB-231 breast = system: MDA-MB-231 breast
# SW-620 colon = system: SW-620 colon
# NCI-H460 lung = system: NCI-H460 lung
# EKVX NSCLC = system: EKVX NSCLC
# SK-MEL-2 melanoma = system: SK-MEL-2 melanoma
# OVCAR-8 ovarian = system: OVCAR-8 ovarian
# UACC-257 melanoma = system: UACC-257 melanoma
# SK-OV-3 ovarian = system: SK-OV-3 ovarian
# HS 578T breast = system: HS 578T breast
# SF-268 CNS = system: SF-268 CNS
# A549 NSCLC = system: A549 NSCLC
# NCI-H226 lung = system: NCI-H226 lung
compound,measurement,setting,value
COC(=O)c1cc2cc(-c3ccc(OC)cc3)cnc2[nH]1,GI50,786-0 renal,1.64 µM
same,TGI,786-0 renal,14.6 µM
same,GI50,SF-539 CNS,1.11 µM
same,TGI,SF-539 CNS,3.79 µM
same,GI50,U251 CNS,0.857 µM
same,TGI,U251 CNS,16.6 µM
same,GI50,HL-60(TB) leukemia,0.767 µM
same,TGI,HL-60(TB) leukemia,> 28.1 µM
same,GI50,CAKI-1 renal,2.28 µM
same,TGI,CAKI-1 renal,> 38.9 µM
same,GI50,RXF 393 renal,1.85 µM
same,TGI,RXF 393 renal,5.96 µM
same,GI50,SF-295 CNS,1.32 µM
same,TGI,SF-295 CNS,11.4 µM
same,GI50,MCF7 breast,0.452 µM
same,TGI,MCF7 breast,> 100 µM
same,GI50,UO-31 renal,4.06 µM
same,TGI,UO-31 renal,24.1 µM
same,GI50,T-47D breast,0.726 µM
same,TGI,T-47D breast,> 100 µM
same,GI50,SNB-75 CNS,1.68 µM
same,TGI,SNB-75 CNS,21.3 µM
same,GI50,A498 renal,1.63 µM
same,TGI,A498 renal,14.3 µM
same,GI50,RPMI-8226 leukemia,1.29 µM
same,TGI,RPMI-8226 leukemia,> 28 µM
same,GI50,HT29 colon,0.399 µM
same,TGI,HT29 colon,23.4 µM
same,GI50,COLO 205 colon,0.774 µM
same,GI50,BT-549 breast,1.08 µM
same,TGI,BT-549 breast,> 32.2 µM
same,GI50,NCI-H522 lung,0.767 µM
same,TGI,NCI-H522 lung,5.48 µM
same,GI50,SK-MEL-28 melanoma,6.27 µM
same,TGI,SK-MEL-28 melanoma,> 100 µM
same,GI50,MALME-3M melanoma,2.87 µM
same,TGI,MALME-3M melanoma,37.9 µM
same,GI50,HOP-62 NSCLC,2.95 µM
same,TGI,HOP-62 NSCLC,21.2 µM
same,GI50,K-562 leukemia,0.427 µM
same,TGI,K-562 leukemia,> 100 µM
same,GI50,MOLT-4 leukemia,1.06 µM
same,TGI,MOLT-4 leukemia,> 100 µM
same,GI50,HCT-116 colon,0.39 µM
same,TGI,HCT-116 colon,11.7 µM
same,GI50,PC-3 prostate,1.26 µM
same,TGI,PC-3 prostate,15 µM
same,GI50,SNB-19 CNS,2.27 µM
same,TGI,SNB-19 CNS,> 64.7 µM
same,GI50,OVCAR-4 ovarian,3.47 µM
same,TGI,OVCAR-4 ovarian,> 100 µM
same,GI50,IGROV1 ovarian,0.439 µM
same,TGI,IGROV1 ovarian,2.77 µM
same,GI50,SN12C renal,5.73 µM
same,TGI,SN12C renal,> 51.6 µM
same,GI50,LOX IMVI melanoma,2.19 µM
same,TGI,LOX IMVI melanoma,> 100 µM
same,GI50,HCC-2998 colon,2.34 µM
same,TGI,HCC-2998 colon,18.9 µM
same,GI50,M14 melanoma,0.511 µM
same,TGI,M14 melanoma,7.52 µM
same,GI50,SK-MEL-5 melanoma,0.922 µM
same,TGI,SK-MEL-5 melanoma,15.8 µM
same,GI50,KM12 colon,0.418 µM
same,TGI,KM12 colon,12.9 µM
same,GI50,NCI/ADR-RES ovarian,0.36 µM
same,TGI,NCI/ADR-RES ovarian,3.41 µM
same,GI50,HCT-15 colon,0.6 µM
same,TGI,HCT-15 colon,> 100 µM
same,GI50,UACC-62 melanoma,1.88 µM
same,TGI,UACC-62 melanoma,> 70.1 µM
same,GI50,OVCAR-3 ovarian,0.359 µM
same,TGI,OVCAR-3 ovarian,1.19 µM
same,GI50,DU-145 prostate,2.6 µM
same,TGI,DU-145 prostate,16 µM
same,GI50,OVCAR-5 ovarian,11.3 µM
same,TGI,OVCAR-5 ovarian,73.7 µM
same,GI50,SR leukemia,0.286 µM
same,TGI,SR leukemia,21.1 µM
same,GI50,ACHN renal,7.77 µM
same,TGI,ACHN renal,57.1 µM
same,GI50,MDA-MB-435,0.227 µM
same,TGI,MDA-MB-435,0.666 µM
same,GI50,TK-10 renal,4.26 µM
same,TGI,TK-10 renal,21.8 µM
same,GI50,CCRF-CEM leukemia,2.61 µM
same,TGI,CCRF-CEM leukemia,> 100 µM
same,GI50,NCI-H23 lung,3.33 µM
same,TGI,NCI-H23 lung,24.1 µM
same,GI50,MDA-MB-231 breast,4.11 µM
same,TGI,MDA-MB-231 breast,31.2 µM
same,GI50,SW-620 colon,0.389 µM
same,TGI,SW-620 colon,> 100 µM
same,GI50,NCI-H460 lung,0.565 µM
same,TGI,NCI-H460 lung,11.6 µM
same,GI50,EKVX NSCLC,5.87 µM
same,TGI,EKVX NSCLC,> 100 µM
same,GI50,SK-MEL-2 melanoma,2.76 µM
same,TGI,SK-MEL-2 melanoma,> 67.3 µM
same,GI50,OVCAR-8 ovarian,1.52 µM
same,TGI,OVCAR-8 ovarian,16.4 µM
same,GI50,UACC-257 melanoma,7.35 µM
same,TGI,UACC-257 melanoma,> 100 µM
same,GI50,SK-OV-3 ovarian,2.35 µM
same,TGI,SK-OV-3 ovarian,12.9 µM
same,TGI,HS 578T breast,> 30.3 µM
same,GI50,SF-268 CNS,2.05 µM
same,TGI,SF-268 CNS,27.7 µM
same,GI50,A549 NSCLC,1.13 µM
same,TGI,A549 NSCLC,40.3 µM
same,GI50,NCI-H226 lung,9.15 µM
same,TGI,NCI-H226 lung,57.3 µM
